In patent publication US20230220443A1, “CHARACTERIZATION OF S-ADENOSYL-L-METHIONINE-CONSUMING ENZYMES WITH 1-STEP EZ-MTASE: A UNIVERSAL COUPLED-ASSAY” (ALBERT EINSTEIN COLLEGE OF MEDICINE, priority 2017, published 2023):
Entries after “also recorded” stand apart in the source; their conditions may differ. Like-named read-outs stand apart in the source and are kept apart here.

How the values were obtained:
[1] = biological target: T1, NcDIM-5 (Neurospora crassa, UniProt Q8X225); assay type: biochemical
T1 construct: GST; made in house
T1 sequence (Q8X225 1-331): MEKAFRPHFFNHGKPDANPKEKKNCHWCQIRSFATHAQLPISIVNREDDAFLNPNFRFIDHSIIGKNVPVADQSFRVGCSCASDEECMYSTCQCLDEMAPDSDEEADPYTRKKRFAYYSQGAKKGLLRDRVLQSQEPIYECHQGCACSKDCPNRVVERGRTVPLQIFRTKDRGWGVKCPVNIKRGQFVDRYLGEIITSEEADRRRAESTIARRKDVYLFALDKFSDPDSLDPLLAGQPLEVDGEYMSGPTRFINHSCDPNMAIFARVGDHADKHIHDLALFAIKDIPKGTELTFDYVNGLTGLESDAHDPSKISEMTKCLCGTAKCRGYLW
Method: Kinetic behavior for peptide H3(1-53) against NcDIM-S(SAM sat.)—Experiments were conducted following matching CePRMT5 protocol above. Briefly, the 250-μL reaction mixtures from a same row contained 25 mM glycine buffer pH=9.50, 1 mM βME, 10% glycerol, 50 mM NaCl, 4 μM coupling deaminase TM0936, 7.6 nM NcDIM-5 and various peptide concentrations (0.51-12.68 μM; in the first well, peptide acceptor was omitted to account for background signal—natural decomposition of SAM). Reactions started upon addition of SAM (25.8 μM saturating final concentration) and absorbance was recorded. Initial rates were first corrected for background signal, then plotted against H3(1-53) concentrations. Fit to the Michaelis-Menten equation provided corresponding kinetic parameters.
(§1) Kinetic behavior for 8-aza-SAM against MTases (acceptor sat.)—Briefly, kinetic parameters were determined at 20° C. in a UV-Star 96-well flat bottom plate (Greiner Bio-One, #655801) by continuous monitoring of absorbance at 282 nm using a SpectraMax M5 instrument (Molecular Devices). As for SAM experiments, the measurements consisted of two experimental subsets: MTase reactions (both 8-aza-SAM and acceptor added) and MTase blanks (8-aza-SAM was added without acceptor to account for natural 8-aza-SAM decomposition). The 250-μL (60-μL) reaction mixtures from a same row contained 50 mM phosphate buffer pH=7.60 (7.80), 1 mM βME, 10% glycerol (5% glycerol, 100 μM MgCl2), 4 μM coupling deaminase TM0936, either 1.5 μM CePRMT5 or 402 nM TbPRMT7 (or 610 nM GsSDMT) and various 8-aza-SAM concentrations. […] Initial rates were first corrected for background signal, then plotted against 8-aza-SAM concentrations and fitted to the Michaelis-Menten equation to yield corresponding kinetic parameters.
where [MTase] and [8-aza-SAM] are the total concentration of methyltransferase and methyl donor, respectively; Km is the Michaelis constant, Kf is the substrate inhibition constant and kcat is the turnover for 8-aza-SAM substrate.

[2] = biological target: T2, GsSDMT (Galdieria sulphuraria, UniProt M2XPA0); test: 1-Step EZ-MTase UV-based coupled assay, GsSDMT kinetics; assay type: biochemical; details: for Km / kcat: pH=7.80, co-substrate saturating
T2 sequence (M2XPA0 2-297): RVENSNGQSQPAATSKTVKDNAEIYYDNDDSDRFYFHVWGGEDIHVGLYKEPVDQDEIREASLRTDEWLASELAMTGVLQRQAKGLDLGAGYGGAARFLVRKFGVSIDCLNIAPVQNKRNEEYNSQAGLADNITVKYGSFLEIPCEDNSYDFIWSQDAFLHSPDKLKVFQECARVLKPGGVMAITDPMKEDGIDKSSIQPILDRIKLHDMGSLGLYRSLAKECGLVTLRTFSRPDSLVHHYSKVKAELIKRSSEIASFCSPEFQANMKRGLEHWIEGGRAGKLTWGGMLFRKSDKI
Method: Kinetic behavior for sarcosine against GsSDMT (SAM sat.)—Experiments were conducted following matching CePRMT5 protocol above. Briefly, the 100-μL mixtures from a same row contained 100 mM phosphate buffer pH=7.80, 1 mM βME, 5% glycerol, 100 μM MgCl2, 4 μM coupling deaminase TM0936, 976 nM GsSDMT and various sarcosine concentrations (0.5-12.5 mM; in the first well, sarcosine was omitted to account for background signal—natural decomposition of SAM). Reactions started upon addition of SAM (750 μM saturating final concentration), 60-μL volumes were transferred onto UV plate and absorbance was recorded. Initial rates were first corrected for background signal, and then plotted against sarcosine concentrations. Fit to the Michaelis-Menten equation provided corresponding kinetic parameters.
Kinetic behavior for SAM against GsSDMT (sarcosine sat.)—Experiments were conducted following matching CePRMT5 protocol above. Briefly, the measurements consisted of two experimental subsets: MTase reactions (both SAM and sarcosine added) and MTase blanks (SAM was added without sarcosine to account for natural SAM decomposition). The 100-μL reaction mixtures from a same row contained 100 mM phosphate buffer pH=7.80, 1 mM βME, 5% glycerol, 100 μM MgCl2, 4 μM coupling deaminase TM0936, 195 nM GsSDMT and various SAM concentrations (49.9-750.2 μM). Reactions started upon addition of either sarcosine (10 mM saturating final concentration; MTase reactions) or water (MTase blanks), 60-μL volumes were transferred onto UV plate and absorbance was recorded at 263 nm. Initial rates were first corrected for background signal, and then plotted against SAM concentrations. Fit to the Michaelis-Menten equation provided corresponding kinetic parameters.
as §1

[3] = biological target: T2, GsSDMT; details: lit. (54); cited from earlier work
[4] = biological target: T1, NcDIM-5; details: literature values; cited from earlier work
[5] = pH=9.50, 25 μM SAM, 7.6 nM NcDIM-5

## C[S+](CC[C@H](N)C(=O)O)C[C@H]1O[C@@H](n2nnc3c(N)ncnc32)[C@H](O)[C@@H]1O (stereo partly drawn) [8-aza-SAM, S-8-aza-adenosyl-L-methionine]
[1]
  acceptance of cofactor analog as substrate: unable to accept; also recorded: unable to process
[1]; [5]
  Km: NOT A
  kcat: NOT A
[2]
  substrate inhibition (inhibitory behavior of the analog): not observed
  Km: 443 ± 33 µM
  kcat: 1.35 ± 0.05 s⁻¹

## C[S+](CC[C@H](N)C(=O)O)C[C@H]1O[C@@H](n2cnc3c(N)ncnc32)[C@H](O)[C@@H]1O (stereo partly drawn) [SAM, S-adenosyl-L-methionine]
[3]
  kcat: 0.867 ± 0.067 s⁻¹
[4]
  Km: 0.68 ± 0.2 µM
  kcat: 0.000861 s⁻¹
[2]
  Km: 95 ± 18 µM
  kcat: 0.7 ± 0.033 s⁻¹
